Data published in patent publication US20050026836A1, “Composition for the treatment of damaged tissue” (priority 1999, published 2005).

What was measured:
uPA and MMP-3 = experiment: Inhibition of uPA and MMP-3-mediated KGF-2 degradation (dual protease assay); type: biochemical, human; details: uPA and MMP-3 together / KGF-2; inhibitors used (100 μM), alone or in combination
Protocol: The extent of proteolysis of the growth factors was assayed by incubating TGF-β2, VEGF, PDGF-BB and KGF-2 with the proteases uPA, plasmin, MMP-3 and MMP-13 in assay buffer (either uPA/plasmin buffer, 50 mM tris-HCl, pH 7.4 or MMP assay buffer, 100 mM Tris, 10 mM NaCl, 10 mM CaCl2, 0.05% (w/v) Brij 35, pH 7.5). […] The growth factors were added to the incubation mixture at a final concentration of […], unless otherwise stated.
The effects of uPA were determined by incubation at a typical final concentration of 25 μg/ml (1500 U/ml) with each growth factor. The effects of plasmin were determined at a typical final concentration of 0.1 mg/ml by incubation with the individual growth factors in assay buffer. MMP-3 and -13 were incubated at a typical final concentration of 10 nM with the growth factors in assay buffer. Dual protease assays carried out with uPA and MMP-3 together were performed in 100 mM Tris, […], 10 mM CaCl2, 0.05% (w/v) Brij 35, pH 7.5. All incubations were performed in siliconised tubes (Sigma Aldrich, UK).
The inhibitors used in these experiments were compound 9454, compound 9470 and compound 5214. These were dissolved in DMSO at a concentration of 10 mM. Typical final concentrations for these inhibitors were in the range of 100 μM to 10 nM. Aprotinin was dissolved in the Tris buffer at 10 mg/ml and used at a typical concentration of 10 μg/ml. […]

MMP-13 [1] = molecular target: T1, MMP-13 (Homo sapiens, UniProt P45452); experiment: MMP-13 fluorogenic inhibition assay; type: biochemical; details: estimated from IC50; read-out: Calculated Ki(nM) MMP-13
T1 construct: made in house
Protocol: (§1) All enzymes were pre-activated at 37° C. with aminophenylmercuric acetate (APMA) or trypsin before being made up to the final concentrations used in the assay.
(§2) For MMP-1, the assay buffer used was 50 mM Tris, 200 mM NaCl, 5 mM CaCl2, 20 μM ZnCl2, 0.05% (w/v) Brij 35, pH 7.5. […] For MMP-13, the assay buffer used was 50 mM Tris, pH 7.5, 200 mM NaCl, 5 mM CaCl2, […] and 0.02% (w/v) Brij 35.
Assays were carried out in 96-well microfluor plates. All incubations were performed at 37° C. and fluorescence readings determined at 360 nm γex and 450 nm γem.
For the assay, the fluorescence values at time zero were subtracted from those determined at 15 or 20 minutes. The % response was then calculated by comparison to positive controls (enzyme, buffer and substrate in the absence of inhibitor). IC50 values were then determined using FitCurve (Excel Tessella Stats add-in).
(§3) These were estimated using the following equation: IC50=(Ki*[…], where S is the substrate concentration and Km the Michaelis-Menton coefficient. Serine Protease Assays

[2] = molecular target: T2, catalytic domain of human MMP-3 (Homo sapiens, UniProt P08254); experiment: MMP-3 fluorogenic inhibition assay; type: biochemical
T2 construct: made in house
T2 sequence (P08254 100-272 limits assumed): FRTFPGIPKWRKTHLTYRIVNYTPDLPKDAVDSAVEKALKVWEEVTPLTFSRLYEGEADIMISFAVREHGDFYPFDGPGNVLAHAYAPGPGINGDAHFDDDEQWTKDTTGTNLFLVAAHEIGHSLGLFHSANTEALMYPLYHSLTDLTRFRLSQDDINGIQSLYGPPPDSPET
Protocol: as §1, §2
MMP-2, MMP-3 and MMP-9 inhibition was assayed by incubating activated catalytic domain of human MMP-2, MMP-3 and MMP-9 at 1 nM in assay buffer with 5 μM substrate Mca-Arg-Pro-Lys-Pro-Tyr-Ala-Nva-Trp-Met-Lys(Dnp)-NH2, and six different concentrations of inhibitor. The incubation was performed at 37° C. for 60 minutes.
For MMP-2, the final assay concentrations of inhibitors used were 1000, 800, 600, 400, 200 and 100 nM. For MMP-3, the final assay concentrations of inhibitors used were 5, 4, 3, 2, 1 and 0.5 nM. For MMP-9 and MMP-14, the final assay concentrations of inhibitors used were 5, 4, 3, 2, 1 and 0.5 μM.
All assays were carried out in a black 96-well plate with a final volume of 100 μl in each well. Inhibitors were dissolved in dimethylsulphoxide (DMSO) to 1 mM. Solutions were then serially diluted in buffer to give the final concentrations shown.
as §3

MMP-13 [3] = molecular target: T1, MMP-13; experiment: Reduction of MMP-13-catalysed degradation of KGF-2; type: biochemical; details: MMP-13 / KGF-2, read-out: Percentage inhibition of proteolysis
MMP-3 = molecular target: T3, MMP-3 (Homo sapiens, UniProt P08254); experiment: Reduction of MMP-3-catalysed degradation of KGF-2; type: biochemical; details: MMP-3 / KGF-2, read-out: Percentage inhibition of proteolysis
T3 construct: made in house
T3 sequence (P08254 100-272 limits assumed): as above

Ki (MMP-13 [1]): 857 nM | Selectivity among MMPs (in words) ([2]; from Ki values of Table 3 (MMP-1, -2, -3, -9, -13, -14)): selective MMP-3 inhibitor | Ki ([2]; read-out: Calculated Ki(nM) MMP-3): 44 nM | inhibition at 0.1 µM (MMP-13 [3]; inhibitor 0.1 μM): 1.6% | inhibition at 1 µM (MMP-13 [3]; inhibitor 1 μM): 10% | inhibition at 10 µM (MMP-13 [3]; inhibitor 10 μM): 23.7% | inhibition at 100 µM (MMP-13 [3]; inhibitor 100 μM): 82.9% | inhibition at 0.1 µM (MMP-3; inhibitor 0.1 μM): 45% | inhibition at 1 µM (MMP-3; inhibitor 1 μM): 30% | inhibition at 10 µM (MMP-3; inhibitor 10 μM): 62% | inhibition at 100 µM (MMP-3; inhibitor 100 μM): 68%
SMILES: COC[C@@H](NC(=O)[C@@H](NC(=O)[C@H](CCCc1ccc(-c2cccc(OC)c2)c(C)c1)CC(=O)O)C(C)(C)C)c1ccccc1 [compound 9454, (3R)-3-({[(1S)-2,2-Dimethyl-1-({[(1S)-2-methoxy-1-phenylethyl]amino}carbonyl)propyl]amino}carbonyl)-6-(3′-methoxy-2-methylbiphen-4-yl)hexanoic acid]
Percentage inhibition of proteolysis (uPA and MMP-3): 16.3
